From publication PMC9866541, “Flavonoid Derivatives as New Potent Inhibitors of Cysteine Proteases: An Important Step toward the Design of New Compounds for the Treatment of Leishmaniasis” (Microorganisms, 2023)
Blank lines part the entries; values can stand above or below the compound they belong to.

Experiments:
[1] = target: T1, rCPB2.8 (Leishmania mexicana, UniProt P36400); test: Determination of IC50 on rCPB2.8 (Z-FR-AMC); assay type: biochemical
T1 construct: recombinant enzymes (r) lacking the C-terminal region
T1 sequence (P36400 126-343): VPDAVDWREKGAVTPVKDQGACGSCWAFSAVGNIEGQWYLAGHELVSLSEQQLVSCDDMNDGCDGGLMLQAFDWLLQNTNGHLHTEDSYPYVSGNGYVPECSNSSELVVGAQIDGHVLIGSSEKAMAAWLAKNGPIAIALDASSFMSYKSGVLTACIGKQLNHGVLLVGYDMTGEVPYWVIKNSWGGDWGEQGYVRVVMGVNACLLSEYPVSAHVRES
Method: Cysteine proteases rCPB2.8, rCPB3, and rH84Y were assayed in 100 mM sodium acetate buffer containing 5 mM EDTA, 100 mM NaCl, 0.01% Triton X-100, and 20% glycerol, at pH 5.5. The enzymes were pre-incubated in the presence of 5 mM DTT for 5 min at 37 °C in a 1 mL final volume with constant stirring. Enzyme activities were monitored using fluorogenic probe Z-FR-AMC (9.25 µM final concentration), and the fluorescence was monitored by spectrofluorometry using fluorometer F2700 (Hitachi, Tokyo, Japan) set to λEx = 360 nm and λEm = 480 nm. The IC50 evaluation was performed using a progressive increase in the concentration of the compounds; the IC50 values were calculated using nonlinear regression, and the data were analysed by Grafit 5.0.13 software using Equation (1). (1) y=100%/1+(x/IC50)^S.

[2] = system: Promastigote forms of L. amazonensis; test: Antipromastigote assay (MTT); assay type: cell-based, Leishmania amazonensis; settings: for SI (selectivity index): GL50 in NIH/3T3 cells / IC50 in extracellular promastigotes; for IC50: Leishmania amazonensis, L. amazonensis promastigotes, 72 h, 26 °C, MTT, highest concentration tested 10 µg/mL, read-out: Promastigote IC50
Method: A standard strain of Leishmania (Leishmania amazonensis) (IFLA/BR/1967/PH8) was used for the evaluation of in vitro antileishmanial activity. The promastigote forms were grown in Schneider’s insect medium (Sigma-Aldrich®, SP/Brazil) supplemented with 20% foetal bovine serum (Sigma-Aldrich®, SP/Brazil), 10,000 U/mL penicillin, and 10 mg/mL streptomycin (Sigma-Aldrich®, SP/Brazil).
Promastigote forms of L. amazonensis in the log growth phase (10^e6 parasites/mL) were added to 96-well plates and incubated in sextuplicate with the test samples (0.25–10.0 µg/mL). The microplates were incubated at 26 °C for 72 h. Cell viability was assessed by adding 5 mg/mL of MTT ([3-(4,5-dimethylthiazol-2-yl)-2,5-diphenyltetrazolium bromide] (Sigma-Aldrich® SP/Brazil). Results were expressed as the half-maximal inhibitory concentration (IC50) calculated by a nonlinear dose–response regression curve using the statistical program GraphPad PRISM 5.0. Pentamidine (Sigma-Aldrich ® SP/Brazil; 0.25–10 µg/mL) was used as a positive control, and pure Schneider culture medium was used as a negative control.

[3] = system: NIH/3T3 fibroblasts; test: Cytotoxicity on mammalian cells (sulphorhodamine B); assay type: cell-based; settings: for NIH/3T3 Cells GL50: 48 h, concentration that inhibited cell growth by 50%
Method: The cytotoxic effect of the test samples was evaluated on NIH/3T3 fibroblasts, obtained from the Rio de Janeiro Cell Bank (Brazil). Cells were seeded in 96-well plates ([…]). After 24 h of fixation, cells were incubated for 48 h with test samples at 0.25–250 µg/mL, in triplicate. […] Doxorubicin (0.025–25 µg/mL was used as a positive control. Cells were fixed by adding 20% trichloroacetic acid and were subsequently stained with sulphorhodamine B (0.1%) diluted in acetic acid after 48 h of exposure. Absorbance values were read on the PT-READER microplate instrument (Thermoplate®), and growth percentages were calculated according to procedures in the literature. Cytotoxicity activity was expressed as the concentration of drug that inhibited cell growth by 50% (GL50), and growth was determined by nonlinear regression using Origin 6.0 software (OriginLab). The statistical significance was analysed using an unpaired Student’s t-test or a one-way analysis of variance. A p-value < 0.05 was considered statistically relevant. In addition, the SI was calculated using the ratio between cytotoxicity in NHI-3T3 cells (GL50) and activity in the parasite forms (IC50).

[4] = target: T1, rCPB2.8; test: Enzyme kinetics and mechanism of inhibition of rCPB2.8; assay type: biochemical; settings: for α: factor of formation of the ESI complex; for β: factor of formation of the IEI complex; for γ: factor of formation of the IESI complex; for mechanism: key: NCPC: non-competitive inhibition with positive cooperativity; SLNC: simple linear non-competitive inhibition
Method: (§1) Studies of cysteine proteases rCPB2.8, rCPB3, and rH84Y inhibition kinetics were performed in different concentrations of Z-FR-AMC in the presence and absence of compounds using 100 mM sodium acetate buffer containing 5 mM EDTA, 100 mM NaCl, 0.01% Triton X-100, and 20% glycerol, at pH 5.5. Aliquots of the enzymes were pre-incubated with 5 mM DTT for 5 min at 37 °C. For every kinetic measurement, the compounds were pre-incubated with each enzyme for 10 min before adding the substrate. All kinetic assays were performed in duplicate. Inhibition constants were determined using different equations, depending on the inhibition mechanism. The assumed KM values of rCPB2.8, rCPB3, and rH84Y for Z-FR-AMC were 3.23 µM, 2.99 µM, and 2.80 µM, respectively. The data of the activity rate and substrate concentration generated rectangular hyperbolic profiles that were linearised using the Lineweaver–Burk double-reciprocal plot. The replot profiles of the slope vs. inhibitor and intercept vs. inhibitor provided Ki and αKi parameters, respectively. If the replots present a parabolic profile, the system involves the participation of a second molecule of the compound, which can bind the enzyme complexed to the first compound (EI), forming IEI, and bind to the ESI complex, forming IESI. Linearisation is required, generating the 1/Kslope vs. inhibitor and 1/Kintercept vs. inhibitor replots, according to Equations (2) and (3). (2) 1/Kslope=1/Ki+[I]/βKi2, (3) 1/Kintercept=1/αKi+[I]/αγKi2, where Ki is the inhibitory constant, [I] is the concentration of inhibitor, α is the factor of formation of the ESI complex (enzyme–substrate–inhibitor complex), β is the factor of formation of the IEI complex (inhibitor–enzyme–inhibitor complex), and γ is the factor of formation of the IESI complex (inhibitor–enzyme–substrate–inhibitor complex) according to the general mechanism (Figure 8). Furthermore, β and γ measure the cooperativity between the binding of the first and second inhibitor molecules to form IEI and IESI, respectively.

[5] = target: rCPB3 (Leishmania mexicana, UniProt P36400, D186N/D189S/N185D, form not given); test: Enzyme kinetics and mechanism of inhibition of rCPB3; assay type: biochemical; settings: for α: factor of formation of the ESI complex; for mechanism: key: NCPC: non-competitive inhibition with positive cooperativity; SLNC: simple linear non-competitive inhibition
Chain of rCPB3 (P36400 126-343 D186N/D189S/N185D): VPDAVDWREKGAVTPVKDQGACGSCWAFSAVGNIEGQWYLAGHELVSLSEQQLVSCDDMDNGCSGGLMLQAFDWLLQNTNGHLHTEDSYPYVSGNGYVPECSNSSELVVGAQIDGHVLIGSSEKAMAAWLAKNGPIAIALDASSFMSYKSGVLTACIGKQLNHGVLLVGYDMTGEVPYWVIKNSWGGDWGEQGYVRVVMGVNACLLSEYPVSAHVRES
Method: as §1

[6] = target: rH84Y (Leishmania mexicana, UniProt P36400, D186N/D189S/H209Y/N185D, form not given); test: Enzyme kinetics and mechanism of inhibition of rH84Y; assay type: biochemical; settings: for α: factor of formation of the ESI complex; for mechanism: key: NCPC: non-competitive inhibition with positive cooperativity; SLNC: simple linear non-competitive inhibition
Chain of rH84Y (P36400 126-343 D186N/D189S/H209Y/N185D): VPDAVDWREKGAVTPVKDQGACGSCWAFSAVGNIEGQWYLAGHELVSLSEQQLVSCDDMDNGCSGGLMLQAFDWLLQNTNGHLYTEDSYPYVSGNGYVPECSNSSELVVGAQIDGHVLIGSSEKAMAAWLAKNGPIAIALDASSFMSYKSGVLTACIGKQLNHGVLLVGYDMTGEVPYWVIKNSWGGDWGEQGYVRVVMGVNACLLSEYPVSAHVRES
Method: as §1

[7] = factor of formation of the IEI complex
[8] = factor of formation of the IESI complex

SMILES: COc1ccc(/C=C/C(=O)c2cc(Cl)ccc2O)cc1 [Compound 3a, (E)-1-(5-chloro-2-hydroxyphenyl)-3-(4-methoxyphenyl)prop-2-en-1-one]
IC50 [1]: 7110 ± 320 nM | SI (selectivity index) [2]: >1443.10 | IC50 [2]: 600 nM | NIH/3T3 Cells GL50 [3]: >865.86 µM | Cytotoxicity against mammal cells (in words) ([3]; NIH/3T3 cells): noncytotoxic

IC50 [2]: 800 nM
SMILES: N=C(N)c1ccc(OCCCCCOc2ccc(C(=N)N)cc2)cc1 [Pentamidine, reference compound]

SMILES: COc1ccc(/C=C/C(=O)c2ccccc2O)cc1 [Compound 2a, (E)-1-(2-hydroxyphenyl)-3-(4-methoxyphenyl)prop-2-en-1-one]
IC50 [1]: 2350 ± 190 nM | SI (selectivity index) [2]: 1324 | IC50 [2]: 710 nM | NIH/3T3 Cells GL50 [3]: 940.14 µM

SMILES: COc1cccc2c1C(=O)c1c(O)c3c(c(O)c1C2=O)C[C@@](O)(C(=O)CO)C[C@@H]3O[C@H]1C[C@H](N)[C@H](O)[C@H](C)O1 [Doxorubicin, reference compound]
NIH/3T3 Cells GL50 [3]: 0.05 µM

SMILES: CN(C)c1ccc(-c2oc3ccc(Cl)cc3c(=O)c2O)cc1 [f13c, 6-chloro-2-(4-(dimethylamino)phenyl)-3-hydroxy-4H-chromen-4-one]
IC50 [1]: 14200 ± 650 nM | IC50 [2]: > 10 µg/mL | NIH/3T3 Cells GL50 [3]: >791.76 µM

IC50 [2]: 100 nM
SMILES: C[C@@H]1[C@H](O)[C@@H](C)/C=C/C=C/C=C/C=C/C=C/C=C/C=C/[C@H](O[C@@H]2O[C@H](C)[C@@H](O)[C@H](N)[C@@H]2O)C[C@@H]2O[C@](O)(C[C@@H](O)C[C@@H](O)[C@H](O)CC[C@@H](O)C[C@@H](O)CC(=O)O[C@H]1C)C[C@H](O)[C@H]2C(=O)O [Amphotericin B, reference compound]

SMILES: COc1ccc(/C=C/C(=O)c2cc(F)ccc2O)cc1 [Compound 4a, (E)-1-(5-fluoro-2-hydroxyphenyl)-3-(4-methoxyphenyl)prop-2-en-1-one]
IC50 [1]: 3350 ± 170 nM | IC50 [2]: > 10 µg/mL | NIH/3T3 Cells GL50 [3]: 901.09 µM

SMILES: CN(C)c1ccc(-c2oc3ccccc3c(=O)c2O)cc1 [f12c, 2-(4-(dimethylamino)phenyl)-3-hydroxy-4H-chromen-4-one]
IC50 [1]: 10300 ± 390 nM | SI (selectivity index) [2]: 1039.90 | IC50 [2]: 730 nM | NIH/3T3 Cells GL50 [3]: 759.13 µM

SMILES: COc1ccc(-c2oc3ccccc3c(=O)c2O)cc1 [f12a, 3-hydroxy-2-(4-methoxyphenyl)-4H-chromen-4-one]
IC50 [1]: 4720 ± 380 nM | Formation of IESI favoured by binding of the first molecule [4]: 50 fold | Mechanism [4]: NCPC | αKi [4]: 10.7 ± 1.1 µM | Ki ([4]; Ki): 12400 ± 1400 nM | α [4]: 1 | β [4]: 0.29 | γ [4]: 0.02 | Ki ([4]; βKi): 3650 ± 390 nM | Ki ([4]; γKi): 250 ± 30 nM | Mechanism [5]: SLNC | αKi [5]: 7.50 ± 0.66 µM | α [5]: 1 | Mechanism [6]: SLNC | αKi [6]: 11.2 ± 0.5 µM | α [6]: 1 | IC50 [2]: > 10 µg/mL | NIH/3T3 Cells GL50 [3]: >931.93 µM

SMILES: O=C(/C=C/c1ccc2c(c1)OCO2)c1cc(Cl)ccc1O [Compound 3b, (E)-3-(benzo[d][1, 3]dioxol-5-yl)-1-(5-chloro-2-hydroxyphenyl)prop-2-en-1-one]
IC50 [1]: 18400 ± 1220 nM | SI (selectivity index) [2]: 61.59 | IC50 [2]: 960 nM | NIH/3T3 Cells GL50 [3]: 59.13 µM

SMILES: O=C(/C=C/c1ccc2c(c1)OCO2)c1ccccc1O [Compound 2b, (E)-3-(benzo[d][1, 3]dioxol-5-yl)-1-(2-hydroxyphenyl)prop-2-en-1-one]
IC50 [1]: 20600 ± 1060 nM | Times less efficient in inhibiting rCPB2.8 than compound 2a ([1]; ratio of IC50 values): 8.78 times | IC50 [2]: > 10 µg/mL | NIH/3T3 Cells GL50 [3]: 910.58 µM

SMILES: CN(C)c1ccc(/C=C/C(=O)c2cc(Cl)ccc2O)cc1 [Compound 3c, (E)-1-(5-chloro-2-hydroxyphenyl)-3-(4-(dimethylamino)phenyl)prop-2-en-1-one]
IC50 [1]: 3970 ± 80 nM | Formation of IEI favoured by binding of the first molecule [4]: 182 fold | Formation of IESI favoured by binding of the first molecule [4]: 87 fold | Mechanism [4]: NCPC | αKi [4]: 147 ± 28 µM | Ki ([4]; Ki): 100000 ± 18000 nM | α [4]: 1.47 | β [4]: 0.0055 | γ [4]: 0.0115 | Ki ([4]; βKi): 550 ± 100 nM | Ki ([4]; γKi): 1150 ± 210 nM | Formation of IEI favoured by binding of the first molecule [5]: sevenfold | Formation of IESI favoured by binding of the first molecule [5]: 20 fold | Mechanism [5]: NCPC | αKi [5]: 141 ± 27 µM | α [5]: 9.15 | β [5, 7]: 0.14 | γ [5, 8]: 0.05 | Formation of IEI favoured by binding of the first molecule [6]: 20 fold | Formation of IESI favoured by binding of the first molecule [6]: 28 fold | Mechanism [6]: NCPC | αKi [6]: 127 ± 20 µM | α [6]: 4.31 | β [6, 7]: 0.049 | γ [6, 8]: 0.036 | IC50 [2]: > 10 µg/mL | NIH/3T3 Cells GL50 [3]: >828.44 µM

SMILES: O=C(/C=C/c1ccc2c(c1)OCO2)c1cc(F)ccc1O [Compound 4b, (E)-3-(benzo[d][1, 3]dioxol-5-yl)-1-(5-fluoro-2-hydroxyphenyl)prop-2-en-1-one]
IC50 [1]: 6610 ± 410 nM | IC50 [2]: 1950 nM | NIH/3T3 Cells GL50 [3]: >873.36 µM

SMILES: O=C(/C=C/c1ccc2c(c1)OCO2)c1ccc(Cl)cc1 [Compound 1b, (E)-3-(benzo[d][1, 3]dioxol-5-yl)-1-(4-chlorophenyl)prop-2-en-1-one]
IC50 [1]: 7420 ± 250 nM | IC50 [2]: > 10 µg/mL | NIH/3T3 Cells GL50 [3]: 811.27 µM

SMILES: COc1ccc(-c2oc3ccc(Cl)cc3c(=O)c2O)cc1 [f13a, 6-chloro-3-hydroxy-2-(4-methoxyphenyl)-4H-chromen-4-one]
IC50 [1]: 1880 ± 70 nM | SI (selectivity index) [2]: >764.70 | IC50 [2]: 1080 nM | NIH/3T3 Cells GL50 [3]: >825.87 µM
